Assay results from PubChem BioAssay (NCI).
Values joined by “and” are separate entries in the source; they are usually repeats but may differ in a detail not shown here. Equal entries are not always repeated.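 1) Cells in 96-well plates. 2) Compound, 48 h, 5 concentrations. 3) Linear interpolation between surrounding doses. 4) Unreached endpoint = highest concentration. Here, GI50 denotes the concentration required for 50% inhibition of growth. TGI: concentration producing complete growth inhibition.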

Experiments:
Assay in all cases: NCI tumour cell line growth inhibition, 48 h
[1] = system: MCF7 breast
[2] = system: A549 NSCLC
[3] = system: K-562 leukemia
[4] = system: HOP-62 NSCLC
[5] = system: SF-539 CNS
[6] = system: PC-3 prostate
[7] = system: OVCAR-8 ovarian
[8] = system: NCI/ADR-RES ovarian
[9] = system: UO-31 renal
[10] = system: SN12C renal

Compound | GI50 [1] | TGI [1] | GI50 [2] | TGI [2] | GI50 [3] | TGI [3] | GI50 [4] | TGI [4] | GI50 [5] | TGI [5] | GI50 [6] | TGI [6] | GI50 [7] | TGI [7] | GI50 [8] | TGI [8] | GI50 [9] | TGI [9] | GI50 [10] | TGI [10]
O=C(c1ccccc1)c1ccc(Oc2ccc([N+](=O)[O-])cc2[N+](=O)[O-])cc1 | 3710 nM | 19.7 µM | 19700 nM | 59.7 µM | 2630 nM | > 100 µM | 7810 nM | 43.1 µM | 2700 nM | 7.32 µM | 5660 nM | > 100 µM | 3390 nM | 14.4 µM | 4.12 µM | 65.3 µM | 2050 nM | 7.76 µM | 3250 nM | 19.1 µM
COc1ccc2cc(-c3cc4c(oc3=O)-c3ccccc3OC4O)c(=O)oc2c1 (centres undefined) | 17100 nM | 34.1 µM | 14500 nM | 28.2 µM | 92900 nM | > 100 µM | 20300 nM | 35.4 µM | 15200 nM | 29.2 µM | 14700 nM | 28.3 µM | 17500 nM | 35.3 µM | 17.7 µM | 31.7 µM | 17500 nM | 33.4 µM | 17200 nM | 32.2 µM
Nc1nc(OCc2cc(Br)cs2)c2[nH]cnc2n1 | 25700 nM | > 100 µM | 32900 nM | > 100 µM | 29700 nM | > 100 µM | 31400 nM | > 100 µM | 18200 nM | 62.6 µM | 21800 nM | > 100 µM | 33300 nM | > 100 µM | 29.5 µM | > 100 µM | 11100 nM | 60.4 µM | 29600 nM | > 100 µM
O=C1C(=O)c2c(nc3ccc(Br)cn23)-c2ccccc21 | 385 nM | 1.08 µM | 1660 nM | 3.81 µM | 244 nM | 1.04 µM | 1590 nM | 3.04 µM | 472 nM | 1.01 µM | 688 nM | 2.47 µM | 575 nM | 1.68 µM | 0.699 µM | 3.87 µM | 480 nM | 1.24 µM | 329 nM | 0.806 µM
O=CNc1ncn[nH]1 |  | > 100 µM |  | > 100 µM |  | > 100 µM |  | > 100 µM |  | > 100 µM |  | > 100 µM |  | > 100 µM |  | > 100 µM |  | > 100 µM |  | > 100 µM
O=C1c2nsnc2C(=O)c2c(F)c(F)c(F)c(F)c21 | 398 nM | 2.19 µM | 2150 nM | 4.85 µM | 238 nM | 1.01 µM | 913 nM | 2.24 µM | 1700 nM | 3.14 µM | 1510 nM | 3.1 µM | 2800 nM | 72.7 µM | 1.63 µM | 4.33 µM | 702 nM | 2 µM | 998 nM | 2.28 µM
O=[N+]([O-])c1ccc(Sc2ncnc3nc[nH]c23)c2nonc12 | 1720 nM | 12.2 µM | 29600 nM | > 100 µM | 436 nM | 2.72 µM | 4970 nM | 20.7 µM | 4530 nM | 21.5 µM | 13100 nM | 30 µM | 7230 nM | 28.9 µM | 5.16 µM | 28.9 µM | 1600 nM | 2.95 µM | 18100 nM | 53.1 µM
CC1=CC(=C(c2ccc(N)cc2)c2ccc(N)cc2)C=CC1=N | 803 nM and 2320 nM | 11.4 µM and > 66.8 µM and 21.1 µM | 2680 nM | 20.1 µM and 50.6 µM and 15.9 µM | 369 nM |  | 486 nM | 1.98 µM and 7.16 µM | 632 nM and 2320 nM | 8.36 µM and 9.18 µM and 16.9 µM | 553 nM and 2580 nM | 10.6 µM and 18.2 µM and 10.1 µM | 759 nM and 1510 nM | 34.5 µM and 31.4 µM and 12.4 µM | 9.31 µM and 25.7 µM | 46.6 µM and 61.9 µM and > 100 µM | 9520 nM and 14900 nM | 55.6 µM and 50.5 µM and 41.3 µM | 422 nM and 456 nM | 13.5 µM and 10 µM and 69.3 µM
NC(N)=N/N=C/c1c(-c2cc(Cl)sc2Cl)nc2sccn12 | 843 nM | 2.05 µM | 2170 nM | 11.3 µM | 1320 nM | 3.14 µM | 2070 nM | 7.24 µM | 969 nM | 1.72 µM | 1550 nM | 6.15 µM | 1040 nM | 2.84 µM | 7.71 µM | 15.4 µM | 2000 nM | > 50 µM | 642 nM | 1.41 µM
O=C(CN(/C=C/C(=O)C(F)(F)F)c1ccc(Cl)cc1)c1ccccc1 | > 100000 nM | > 100 µM | 12000 nM | > 100 µM | 2800 nM | > 100 µM | 11400 nM | 24.5 µM | 13100 nM | 27.8 µM | 17000 nM | 35.3 µM | 44000 nM | > 100 µM | 14.1 µM | 30.3 µM | 13500 nM | 29.9 µM | 16000 nM | 34.2 µM
C=CC(=O)NCc1cccc(Nc2ncc(Br)c(NCCCNC(=O)C3CCC3)n2)c1 | 1880 nM and 537 nM | 12.5 µM and 4.77 µM | 1490 nM and 901 nM | 12.5 µM and 11.6 µM | 2990 nM and 937 nM | 12.5 µM and > 25 µM | 448 nM and 152 nM | 9.77 µM and 4.33 µM | 369 nM and 475 nM | 2.03 µM and 2.72 µM | 1550 nM and 933 nM | 12.5 µM and 7.04 µM | 1990 nM and 1720 nM | 12.5 µM and > 25 µM | 7.28 µM and 7.94 µM | 12.5 µM and > 25 µM | 256 nM and 260 nM | 1.11 µM and 0.916 µM | 621 nM and 450 nM | 12.5 µM and > 25 µM
CN(C)CCNC(=O)C(C)(C)Oc1ccc(C(=O)c2ccc(Cl)cc2)cc1Cl | 3800 nM | 24.3 µM | 12200 nM | 24.6 µM | 2420 nM | 9.19 µM and > 39 µM |  | 23.9 µM |  | 22.2 µM | 5840 nM | 24 µM |  | 24.5 µM |  | 26.1 µM |  | 22.8 µM | 3590 nM | 26.7 µM
O=C1Nc2c(C(F)(F)F)cccc2[C@@]1(c1ccc(O)cc1)c1ccc(OC(F)(F)F)cc1 | < 10 nM | 0.0269 µM | 18.6 nM | 0.0414 µM | 183 nM | 20.7 µM | 22.6 nM | 0.0661 µM | 16.1 nM | 0.0446 µM | < 14.1 nM | 0.388 µM | < 10 nM | 0.0102 µM | < 0.01 µM | < 0.0105 µM | 14.3 nM | 0.028 µM | < 10 nM | < 0.011 µM
